Experimental data: publication PMC9227305, “Photoinduced Synthesis of Methylated Marine Cyclopeptide Galaxamide Analogs with Isoindolinone as Anticancer Agents” (Marine Drugs, 2022)
*1 amine or outer side, *2 acyl side, *3 side chain or, on linkers, in order; H or OH if unused. Where a SMILES comes first, the peptide text is derived from it. [ ]: non-standard residue; d: D form. X1 = O=C1c2ccccc2[C@@](O)(CN(Cc2ccccc2)[*:1])N1CC(=O)[*:2]; NMeL = CN[C@@H](CC(C)C)C(=O)O

Tests used:
Format in all cases: cell-based, human
MDA-MB-231 cells = details: 48 h
Excerpt: The antitumor activity of the prepared cyclic peptides against human hepatocellular carcinoma cells (HepG-2), human cervical cancer cell lines (HeLa) and human breast cancer cells (MDA-MB-231) was examined by MMT assay, and the mouse fibroblast L929 cells were used as the model cells to evaluate the toxicity of cyclopeptides to normal cell lines. Due to the absence of an authentic standard, taxol was chosen as a control because it is a widely used chemotherapeutic drug for the treatment of various cancers, including liver cancer.
Samples were dissolved in DMSO and diluted into different concentrations ([…], 18.75, 25, 37.5, 50, 75, 100 and 250 μM) and stored at 4 °C. Cells in the logarithmic growth phase were digested with trypsin and then seeded in 96-well plates at a density of 2 × 10^4 cells/well in 100 μL of culture medium. The cells were treated with different concentrations of the tested compound, and a blank control group without the drug was also set up. Six wells were repeated for each dose. After 48 h of co-incubation, MTT solution (100 μL, 0.5 mg/mL) was added, followed by incubation for another 4 h. After discarding the supernatant, 100 μL of DMSO was added per well, and the absorbance (OD) values were measured at 490 nm using an enzyme marker. Cell viability was calculated by the formula: Cell viability (%) = As/Ab × 100% (where As is the absorbance value of the experimental group and Ab is the absorbance value of the blank group). The obtained data were processed using SPSS19 software to obtain IC50 values.

HepG-2 cells [1] = experiment: Intracellular Ca2+ level, Fluo-3 AM flow cytometry; details: 24 h treatment
Excerpt: It has been clear that subtle changes in Ca^2+ concentration, such as intracellular calcium overload, can regulate and trigger apoptosis by inducing the production of mitochondrial trifunctional protein [24]. In this paper, we tried to study the influence of our prepared cyclic peptide on the intracellular calcium ion concentration. The cell-permeable fluorescent dye, Fluo-3 AM, is the most commonly used indicator to detect intracellular calcium ion concentration. […] Based on this principle, intracellular calcium ion concentrations can be detected by flow cytometry. In this paper, HepG-2 cells treated with solvent and the desired concentration of compound 8 for 24 h were collected and co-incubated with Fluo-3 AM. After loading, intracellular Ca^2+ levels were measured by flow cytometry.
Cells incubated in 6-well plates were treated in a similar way as mentioned above, and then 100 µL of Fluo-3 AM (5 µM) was added and incubated for 1 h at 37 °C away from light. After rewashing the cells, the suspended precipitate in PBS was checked by flow cytometry (excitation at 488 nm and emission at 525 nm).

HepG-2 cells [2] = experiment: Mitochondrial membrane potential, rhodamine 123 flow cytometry; details: control 44.9%
Description: A classical fluorescent dye, rhodamine 123, is selectively sequestered by active mitochondrial respiration, but is washed out in cells with decreased MMP, so that the dye fluorescence intensity reflects the level of mitochondrial activity and can be applied in the monitoring of MMP [23].
In this study, we have studied the change of MMP of HepG-2 cells after treatment with different concentrations (0, 5.5, 11 and 22 µM within 48 h) and different time periods (12, 24 and 48 h with 11 µM) of compound 8. Cells were stained with rhodamine 123 and analyzed by flow cytometry. […] The aforementioned analysis clearly discloses that the cyclic peptides can affect the mitochondrial membrane potential and induce apoptosis, consistent with the findings in cell cycle analysis.
Cells in the logarithmic phase were seeded in 6-well plates and incubated for 24 h. After refreshing the culture medium, different concentrations of compound 8 (0, 5.5, 11, 22 μM) were added and co-incubated for 48 h. Meanwhile, the cells were also treated with 11 μM of compound 8 within different time periods (12 h, 24 h, 48 h). Then, the cells were collected by trypsin digestion and washed with phosphate-buffered solution. After centrifuging (1000 r/min) for 5 min, the obtained cell precipitate was suspended in PBS (100 µL); then, 100 µL of rhodamine 123 (1 µM) was added and incubated for 20 min. The cells were centrifuged, resuspended in 600 µL PBS, and analyzed by flow cytometry (maximum excitation wavelength 507 and maximum emission wavelength 529 nm). At least 10,000 events were counted in the experiment.

p53 = experiment: Western blot of p53 level; details: HepG-2 cells, 48 h, increasing drug concentration
Excerpt: The p53 tumor suppressor plays a key role in preventing tumor development. In cancers retaining wild-type p53, the function of p53 can be suppressed by a variety of factors, and the murine double minute 2 (MDM2) protein is an important endogenous cellular inhibitor of p53 [29]. Therefore, inhibiting or blocking MDM2 protein should be an efficient strategy for the development of an antitumor agent. Actually, various MDM2 inhibitors have been studied and screened in recent years, including small molecules and polypeptides. […] Considering that the isoindolinone fragment is always present in the structure of MDM2 inhibitors and plays an important role in binding to the target protein, we tried to detect the MDM2 and p53 protein levels by Western blotting to assess the inhibiting ability of cyclic peptides containing isoindolinone fragments to MDM2 oncoprotein.
HepG-2 cells (5 × 10^6 cells) in the medium were treated with different concentrations of compounds for the required time and were washed twice with ice-cold PBS. The cells were scraped into cell lysate buffer containing phenylmethanesulfonyl fluoride (PMSF) and transferred to a 1.5 mL centrifuge tube, then lysed for 20 min at 4 °C. After centrifuging (12,000 r/min) for 20 min, the supernatant was collected and measured using the BCA Protein Assay Kit (Beyotime Biotechnology Co. Ltd., Shanghai, China)). […]

In the case of CC(C)C[C@@H]1NC(=O)CN2C(=O)c3ccccc3[C@@]2(O)CN(Cc2ccccc2)C(=O)[C@H](CC(C)C)NC(=O)[C@H](CC(C)C)N(C)C(=O)[C@H](CC(C)C)NC(=O)[C@H](CC(C)C)NC1=O [Compound 8, 3-Hydroxy-isoindolinone-cyclo-Gly-Leu-N-Me-Leu-Leu-Leu-Leu] (cyclo(LL[NMeL]L[X1]L)), the IC50 (MDA-MB-231 cells) is reported as 41.7 ± 3.2 µM, the “Fluo-3 fluorescence intensity (intracellular Ca2+) relative to control group” value (HepG-2 cells [1]) is reported as 4.83 times and the “mean mitochondrial fluorescence intensity (rhodamine 123)” value (HepG-2 cells [2]; 5.5 µM, 48 h) is reported as 27.1%. The “mean mitochondrial fluorescence intensity (rhodamine 123)” value (HepG-2 cells [2]; 11 µM, 12 h) was 29.4%, the “mean mitochondrial fluorescence intensity (rhodamine 123)” value (HepG-2 cells [2]; 11 µM, 24 h) was 24.3% and the “mean mitochondrial fluorescence intensity (rhodamine 123)” value (HepG-2 cells [2]; 11 µM, 48 h) was 20.2%. For the same compound, the “mean mitochondrial fluorescence intensity (rhodamine 123)” value (HepG-2 cells [2]; 22 µM, 48 h) was 14.3% and the p53 protein expression (p53) was “increase”.
